Measured values as given in US20250188075A1, “SUBSTITUTED HETEROCYCLIC CSNK1 INHIBITORS” (The Broad Institute, Inc., priority 2022, published 2025).

Legend:
[1] = target: human CSNK1A1 (Homo sapiens (Human), UniProt P48729); experiment: CSNK1A1 assay (ADP-Glo, 1 μM ATP); format: biochemical; conditions: median, read-out: CSNK1A1 Low ATP IC50 [mol/l] (median)
Description: CSNK1A1-inhibitory activity of compounds of the present invention in presence of 1 μM adenosine-tri-phosphate (ATP) was quantified employing the CSNK1A1 assay as described in the following paragraphs. In essence, the enzyme activity is measured by quantification of the adenosine-di-phosphate (ADP), which is generated as a co-product of the enzyme reaction, via the “ADP-Glo™ Kinase Assay” kit from the company Promega. This detection system works as follows: In a first step the ATP not consumed in the kinase reaction is quantitatively converted to CAMP employing an adenylate cyclase (“ADP-Glo-reagent”), then the adenylate cyclase is stopped and the ADP generated in the kinase reaction converted to ATP which generates in a luciferase-based reaction a glow-luminescence signal (“Kinase Detection Reagent”).
Recombinant fusion protein of N-terminal Glutathion-S-Transferase (GST) and full-length human CSNK1A1, expressed by baculovirus infected insect cells and purified via Glutathion affinity chromatography, was purchased from Life Technologies (product no. PV4174) and used as enzyme. As substrate for the kinase reaction the biotinylated peptide biotin-Ahx-KRRRAL-pS-VASLPGL (C-terminus in amide form) was used which can be purchased e.g. from the company Biosyntan (Berlin-Buch, Germany).
For the assay 50 nl of a 100-fold concentrated solution of the test compound in DMSO was pipetted into a white 1536-well microtiter plate (Greiner Bio-One, Frickenhausen, Germany), 2 μL of a solution of CSNK1A1 in aqueous assay buffer [50 mM HEPES pH 7.5, 10% (v/v) glycerol, 10 mM MgCl2, 50 mM NaCl, 1 mM dithiothreitol, 0.01% (w/v) bovine serum albumin, 0.01% (v/v) Triton X-100] were added and the mixture was incubated for 15 min at 22° C. to allow pre-binding of the test compounds to the enzyme before the start of the kinase reaction. Then the kinase reaction was started by the addition of 3 μL of a solution of ATP (1.67 μM=>final conc. in the 5 μL assay volume is 1 μM) and peptide substrate (50 μM=>final conc. in the 5 μL assay volume is 30 μM) in assay buffer and the resulting mixture was incubated for a reaction time of 30 min at 22° C. The concentration of CSNK1A1 was adjusted depending of the activity of the enzyme lot and was chosen appropriate to have the assay in the linear range, a typical concentrations are about 0.0375 ng/μL. The reaction was stopped by the addition of 2.5 μL of “ADP-Glo-reagent” (1:1.5 fold diluted with water) and the resulting mixture was incubated at 22° C. for 1 h to convert the ATP not consumed in the kinase reaction completely to CAMP. Subsequently 2.5 μL of the “kinase detection reagent” (1.2 fold more concentrated than recommended by the producer) were added, the resulting mixture was incubated at 22° C. for 1 h and then the luminescence measured with a suitable measurement instrument (e.g. Viewlux™ from Perkin-Elmer). The amount of emitted light was taken as a measure for the amount of ADP generated and thereby for the activity of the CSNK1A1.
The data were normalised (enzyme reaction without inhibitor=0% inhibition, all other assay components but no enzyme=100% inhibition).

[2] = tested on: total-p53 in MCF-7 cells; experiment: HTRF total-p53 in MCF-7 cells; format: cell-based; conditions: 2 h incubation, median, read-out: HTRF total-p53 MCF-7, IC50 - [mol/l] (median)
Description: Day 1: MCF-7 cells were seeded (10,000 cells in 12 μl/well) in a 384-well-Small Volume-plate (Greiner Bio One #784075) in culture medium (RPMI 1640; (Biochrom; #F 1275; without PhenolRed)+FCS (final: 10%); (Biochrom; #S 0415)+Insulin (bovine); (final: 10 μg/mL, Biochrom; #K 3510)+L-Alanyl-L-Glutamine; (final: 2 mM, Biochrom; #K 0302)+Natriumpyruvat; (final: 1 mM, Biochrom; #L 0473)+Non Essentiell Amino Acids; (final: 1×, Biochrom; #K 0293)). The cells were then treated with different compounds or DMSO (added with the HP Dispenser) and incubated for 2 h at 37° C. Following incubation, the cells were lysed in 4 μl of lysis buffer for 1 h shaking at RT. Finally, 4 μl of antibody solution was added and the samples are incubated overnight at RT, shaking.
Total-p53 was detected in a sandwich assay format using 2 different specific antibodies, one labeled with Eu3+-Cryptate (donor) and the second with d2 (acceptor). Kit: HTRF total p53 detection assay (Cisbio Cat: 64T53PEG).
Day 2: the plate was read on PHERAstar FS (BMG Labtech settings; optic module: HTRF; integration start: 60 us; integration time: 400 μs; flash lamp). IC50 values were calculated using the DRC application in ShiNy Analysis Platform-SNAP.”

[3] = tested on: HCT 116 cells; experiment: HCT 116 cell proliferation assay, CTG; format: cell-based; conditions: HCT 116, CTG, 96 h; median; read-out: 2D-PROLI HCT 116 CTG 96 h, IC50 - [mol/l] (median)
Description: 400 HCT 116 cells/30 μL/well were plated in growth medium (DMEM/Ham's F12, 10% FCS) in a 384-well plate (CORNING #3571) at day 1. Reference plate was seeded for time zero determination. All plates were incubated overnight 37° C. Day 2: test compound was added in 7-step dilution and incubate at 37° C. for 96 h. Day 2: time zero plate: 30 μL/well CTG solution (Promega Cell Titer Glo solution; catalog #G755B and G756B) were added, incubated for 30 minutes, read luminescence on PheraStar. Day 6: compound treated plates: 30 μL/well CTG solution (Promega Cell Titer Glo solution; catalog #G755B and G756B) were added, incubated for 30 minutes, luminescence was read on PheraStar. Proliferation was calculated after subtracting time zero luminescence values from day 6 values and comparing to untreated wells. The IC50 values were determined using the four parameter fit.

[4] = Solubility assay (thermodynamic solubility); format: physicochemical; conditions: aqueous buffer, 24 h

Sequence of human CSNK1A1 (P48729 whole entry): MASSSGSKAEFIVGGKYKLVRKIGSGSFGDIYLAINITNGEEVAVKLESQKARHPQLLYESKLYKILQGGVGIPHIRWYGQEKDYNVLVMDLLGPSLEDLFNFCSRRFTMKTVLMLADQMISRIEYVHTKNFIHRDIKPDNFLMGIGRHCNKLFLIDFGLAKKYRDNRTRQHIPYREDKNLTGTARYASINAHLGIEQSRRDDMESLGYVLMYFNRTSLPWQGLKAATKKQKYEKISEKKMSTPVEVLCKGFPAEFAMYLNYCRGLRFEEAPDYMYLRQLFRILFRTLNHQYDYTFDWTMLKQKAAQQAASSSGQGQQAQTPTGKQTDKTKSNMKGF

## O=C(Nc1cc(-c2[nH]c3nccnc3c2-c2ccccn2)ccn1)[C@@H](CC(F)F)c1ccc(F)cc1 [Example C1, reference compound]
[1]
  IC50: 1.25 nM
[2]
  IC50: 72.8 nM
[3]
  IC50: 429 nM
[4]
  Thermodynamic Solubility [mg/l] (mean): 9.60 mg/L
  Thermodynamic Solubility [μmol/L] (mean): 21.55 µmol/L

## O=C(Nc1cc(-c2[nH]c3ccc(F)nc3c2-c2ccccn2)ccn1)[C@@H](CC(F)F)c1ccc(F)cc1 [Example C2, reference compound]
[1]
  IC50: 1.21 nM
[2]
  IC50: 72.4 nM
[3]
  IC50: 184 nM
[4]
  Thermodynamic Solubility [mg/l] (mean): 0.20 mg/L
  Thermodynamic Solubility [μmol/L] (mean): 0.40 µmol/L

## O=C(Nc1cc(-c2[nH]c3c(OCC(F)F)ncnc3c2-c2ccccn2)ccn1)[C@@H](CC(F)F)c1ccc(F)cc1 [Example C3, reference compound]
[1]
  IC50: 3.1 nM
[2]
  IC50: 97.9 nM
[3]
  IC50: 735 nM
[4]
  Thermodynamic Solubility [mg/l] (mean): <0.10 mg/L
  Thermodynamic Solubility [μmol/L] (mean): <0.18 µmol/L
